Values of other authors in paper PMC12281572.

Experiment: FTIR, 4-fluorophenol as donor (the pK_BHX database, per the paper)
Settings: CCl4; 25 C

Compound | pK_BHX (log10 Kf of the 1:1 H-bond complex with 4-fluorophenol, by FTIR) [log units]
FC12CC3CC(C1)CC(F)(C3)C2 | 0.0
CCC(C)(C)N=CN(C)C | 2.26
CCC#CCC | -0.1
CCCCS(=O)(=O)CCCC | 1.22
CC(C)N | 2.2
CCOC(=O)c1ccc(C)cc1 | 1.05
CC(=O)c1ccc(N(C)C)cc1 | 1.76
C1=COCC1 | 0.53
CC(=Nc1ccc(C)cc1)N(C)c1ccccc1 | 1.75
NCc1cccc(Cl)c1 | 1.55
C=CCN(C)C | 1.92
CC(=O)Nc1ccccc1 | 1.69
COC(=O)N(C)C | 1.8
N#Cc1cccc(C(F)(F)F)c1 | 0.53
COc1ccccc1C(=O)N(C)C | 2.48
CC(=O)c1ccc(N2CCOCC2)cc1 | 1.61
O=COc1ccccc1 | 0.35
CN(C)C(=O)CCl | 1.74
CCOC(=O)c1ccc(F)cc1 | 0.88
COc1ccc(OC)cc1 | 0.12
COc1cccc(OC)c1 | -0.08
CC(C)(C)[N+](=O)[O-] | 0.42
Cn1ccccc1=O | 2.5
CNC(=O)c1ccccc1 | 2.03

Compound | pK_BHX (log10 Kf of the 1:1 H-bond complex with 4-fluorophenol, by FTIR) [log units]
C1COC1 | 1.36
CN(C)C=NN(C)C | 2.43
CCCCO | 1.02
CN(C)C=NCc1cccc(C(F)(F)F)c1 | 1.99
Cc1cc(C)c(C)cc1C | -0.15
CCCN(C)C | 1.98
O=S(c1ccc(Cl)cc1)c1ccc(Cl)cc1 | 1.68
C=Cc1ccncc1 | 1.95
CC(=O)c1ccc2ccccc2c1 | 1.13
CC(C)(C)O | 1.14
CC(C)C(=O)N(C1CCCCC1)C1CCCCC1 | 2.24
CCCCSCCCC | 0.23
CN(C)C(=O)c1ccccc1 | 2.23
C1N2CN3CN1CN(C2)C3 | 1.33
c1ccc2c(c1)ccc1ccccc12 | -0.53
CCN(CC)S(=O)(=O)N(CC)CC | 1.17
CN1CCCCC1=O | 2.6
C=CCCCCC | -0.67
CN(C)C=NS(=O)(=O)c1ccccc1 | 1.51
CCSSCC | -0.4
c1ccc2oncc2c1 | 0.68
C=Cn1ccnc1 | 2.35
CC(=O)c1ccc(C(C)(C)C)cc1 | 1.25
CCOC(=O)c1ccc(C(=O)OCC)cc1 | 0.76

Compound | pK_BHX (log10 Kf of the 1:1 H-bond complex with 4-fluorophenol, by FTIR) [log units]
CCOC(=O)C(C)C | 1.09
CC(=O)c1cccc(Cl)c1 | 0.82
O=P(c1ccccc1)(c1ccccc1)c1ccccc1 | 3.16
CN1CCCN(C)C1=O | 2.79
BrC1CC1 | -0.47
COc1ccc(N=CN(C)C)cc1 | 2.08
Cc1cc[n+]([O-])cc1 | 3.12
C=Cc1ccccn1 | 1.65
CC(C)(C)C#N | 0.99
CC(C)(C)c1ccccc1 | -0.32
[O-][n+]1cc(Cl)cc(Cl)c1 | 1.56
CN(C)C=NCc1cc(Cl)cc(Cl)c1 | 2.0
c1ccc2c(c1)CCCN2 | 0.7
O=CN1CCCC1 | 2.31
Fc1ccccn1 | 0.95
CC(=O)N(C(C)C)C(C)C | 2.47
CN(C)c1cccc2cccc(N(C)C)c12 | -0.24
C1CCOC1 | 1.28
CN(C)C=NCc1cccc(Cl)c1 | 2.1
COc1cc[n+]([O-])cc1 | 3.7
CCCC[N+](CCCC)(CCCC)[N-]C#N | 3.24
CCN(CC)C(=O)C(F)(F)F | 1.06
O=C(C1CC1)C1CC1 | 1.36
ClC1CCCCC1 | -0.27
